In patent US11806342B2, “Diiodohydroxyquinoline for the treatment of clostridium difficile infection” (Purdue Research Foundation, priority 2019, dated 2023):
≈ marks a conversion by molar mass, not a printed value.

Columns and labels:
Format in all cases: cell-based, Clostridium difficile
C. difficile ATCC 9689 [1] = assay: MIC and MBC, broth microdilution; conditions: Clostridioides difficile, ATCC9689, C. difficile ATCC 9689; for MBC: read-out: MBC
Procedure: (§1) MIC50 and MIC90 are the minimum concentration of each agent that inhibited growth of 50% and 90% of the tested isolates, respectively. The minimum bactericidal concentration (MBC) of these drugs was tested by plating 5 μL from wells with no growth onto BHIS agar plates. The MBC was categorized as the lowest concentration that reduced bacterial growth by 99.9% MIC50 and MIC90 are the minimum concentration of each agent that inhibited the growth of 50% and 90% of the tested isolates, respectively. The minimum bactericidal concentration (MBC) of these drugs was tested by plating 5 μL from wells with no growth onto BHIS agar plates. The MBC was categorized as the lowest concentration that reduced bacterial growth by 99.9% [29-31].

C. difficile NR-49290 = assay: MIC and MBC, broth microdilution; conditions: Clostridioides difficile, NR49290, C. difficile NR-49290; for MBC: read-out: MBC
Procedure: as §1

C. difficile P11 [2] = assay: MIC and MBC, broth microdilution; conditions: Clostridioides difficile, C. difficile P11; for MBC: read-out: MBC
Procedure: as §1

C. difficile P13 = assay: MIC and MBC, broth microdilution; conditions: Clostridioides difficile, C. difficile P13; for MBC: read-out: MBC
Procedure: as §1

C. difficile P24 = assay: MIC and MBC, broth microdilution; conditions: Clostridioides difficile, C. difficile P24; for MBC: read-out: MBC
Procedure: as §1

C. difficile P2 = assay: MIC and MBC, broth microdilution; conditions: Clostridioides difficile, C. difficile P2; for MBC: read-out: MBC
Procedure: as §1

C. difficile ATCC 1801 = assay: Checkerboard assay, DIHQ with metronidazole or vancomycin
Procedure: (§2) Interactions between diiodohydroxyquinoline and the anticlostridial drugs (metronidazole and vancomycin) against Clostridium difficile clinical isolates. […] The fractional inhibitory concentration index (ΣFIC) was calculated for each interaction. Interactions where the ΣFIC index was ≤0.5 were categorized as synergistic (SYN).

C. difficile ATCC 9689 [3] = assay: as above
Procedure: as §2

C. difficile I6 = assay: as above
Procedure: as §2

C. difficile P11 [4] = assay: as above
Procedure: as §2

C. difficile P19 = assay: as above
Procedure: as §2

C. difficile P30 = assay: as above
Procedure: as §2

C. difficile ATCC 43598 = assay: MIC and MBC, broth microdilution; conditions: Clostridioides difficile, ATCC43598, C. difficile ATCC 43598
Procedure: as §1

C. difficile ATCC 700057 = assay: MIC and MBC, broth microdilution; conditions: Clostridioides difficile, ATCC700057, C. difficile ATCC 700057
Procedure: as §1

[5] = tested on: C. difficile ATCC BAA-1870; assay: MIC and MBC, broth microdilution; conditions: Clostridioides difficile, ATCCBAA1870, C. difficile ATCC BAA-1870
Procedure: as §1

C. difficile HM-89 = assay: MIC and MBC, broth microdilution; conditions: Clostridioides difficile, HM89, C. difficile HM-89
Procedure: as §1

C. difficile I1 = assay: MIC and MBC, broth microdilution; conditions: Clostridioides difficile, C. difficile I1
Procedure: as §1

C. difficile I2 = assay: MIC and MBC, broth microdilution; conditions: Clostridioides difficile, C. difficile I2
Procedure: as §1

C. difficile I4 = assay: MIC and MBC, broth microdilution; conditions: Clostridioides difficile, C. difficile I4
Procedure: as §1

C. difficile NR-49277 = assay: MIC and MBC, broth microdilution; conditions: Clostridioides difficile, NR49277, C. difficile NR-49277
Procedure: as §1

C. difficile NR-49281 = assay: MIC and MBC, broth microdilution; conditions: Clostridioides difficile, NR49281, C. difficile NR-49281
Procedure: as §1

C. difficile NR-49284 = assay: MIC and MBC, broth microdilution; conditions: Clostridioides difficile, NR49284, C. difficile NR-49284
Procedure: as §1

C. difficile NR-49286 = assay: MIC and MBC, broth microdilution; conditions: Clostridioides difficile, NR49286, C. difficile NR-49286
Procedure: as §1

C. difficile P1 = assay: MIC and MBC, broth microdilution; conditions: Clostridioides difficile, C. difficile P1
Procedure: as §1

C. difficile P7 = assay: MIC and MBC, broth microdilution; conditions: Clostridioides difficile, C. difficile P7
Procedure: as §1

C. difficile P8 = assay: MIC and MBC, broth microdilution; conditions: Clostridioides difficile, C. difficile P8
Procedure: as §1

Cc1ncc([N+](=O)[O-])n1CCO [Metronidazole, metronidazole]
MBC (C. difficile ATCC 9689 [1]): 0.25 µg/mL (≈ 1.46 µM)
MBC (C. difficile NR-49290): 0.25 µg/mL (≈ 1.46 µM)
MBC (C. difficile P11 [2]): 0.25 µg/mL (≈ 1.46 µM)
MBC (C. difficile P13): 0.25 µg/mL (≈ 1.46 µM)
MBC (C. difficile P24): 0.25 µg/mL (≈ 1.46 µM)
MBC (C. difficile P2): 0.25 µg/mL (≈ 1.46 µM)
MIC of metronidazole combined with DIHQ (C. difficile ATCC 1801; C. difficile ATCC 1801): 0.03 µg/mL
MIC (C. difficile ATCC 1801; Clostridioides difficile, ATCC1801, C. difficile ATCC 1801, Table 3, read-out: MIC alone): 0.25 µg/mL
MIC of metronidazole combined with DIHQ (C. difficile ATCC 9689 [3]; C. difficile ATCC 9689): 0.03 µg/mL
MIC (C. difficile ATCC 9689 [3]; Clostridioides difficile, ATCC9689, C. difficile ATCC 9689, Table 3, read-out: MIC alone): 0.25 µg/mL
MIC of metronidazole combined with DIHQ (C. difficile I6; C. difficile I6): 0.03 µg/mL
MIC (C. difficile I6; Clostridioides difficile, C. difficile I6, Table 3, read-out: MIC alone): 0.25 µg/mL
MIC of metronidazole combined with DIHQ (C. difficile P11 [4]; C. difficile P11): 0.03 µg/mL
MIC (C. difficile P11 [4]; Clostridioides difficile, C. difficile P11, Table 3, read-out: MIC alone): 0.25 µg/mL
MIC of metronidazole combined with DIHQ (C. difficile P19; C. difficile P19): 0.06 µg/mL
MIC (C. difficile P19; Clostridioides difficile, C. difficile P19, Table 3, read-out: MIC alone): 0.5 µg/mL
MIC of metronidazole combined with DIHQ (C. difficile P30; C. difficile P30): 0.06 µg/mL
MIC (C. difficile P30; Clostridioides difficile, C. difficile P30, Table 3, read-out: MIC alone): 0.5 µg/mL

CCc1c(Cl)c(O)c(Cl)c(O)c1C(=O)O[C@H]1[C@H](O)[C@H](OC)[C@H](OC/C2=C\C=C\C[C@H](O)/C(C)=C/[C@H](CC)[C@@H](O[C@@H]3OC(C)(C)[C@@H](OC(=O)C(C)C)[C@H](O)[C@@H]3O)/C(C)=C/C(C)=C/C[C@@H]([C@@H](C)O)OC2=O)O[C@@H]1C [Fidaxomicin, fidaxomicin]
MBC (C. difficile ATCC 43598; read-out: MBC): 0.015 µg/mL (≈ 0.0142 µM)
MIC (C. difficile ATCC 43598; read-out: MIC): 0.015 µg/mL (≈ 0.0142 µM)
MBC (C. difficile ATCC 700057; read-out: MBC): 0.007 µg/mL (≈ 0.00662 µM)
MIC (C. difficile ATCC 700057; read-out: MIC): 0.007 µg/mL (≈ 0.00662 µM)
MBC (C. difficile ATCC 9689 [1]): 0.03 µg/mL (≈ 0.0284 µM)
MIC (C. difficile ATCC 9689 [1]; read-out: MIC): 0.03 µg/mL (≈ 0.0284 µM)
MBC ([5]; read-out: MBC): 0.03 µg/mL (≈ 0.0284 µM)
MIC ([5]; read-out: MIC): 0.03 µg/mL (≈ 0.0284 µM)
MBC (C. difficile HM-89; read-out: MBC): 0.03 µg/mL (≈ 0.0284 µM)
MIC (C. difficile HM-89; read-out: MIC): 0.03 µg/mL (≈ 0.0284 µM)
MBC (C. difficile I1; read-out: MBC): 0.007 µg/mL (≈ 0.00662 µM)
MIC (C. difficile I1; read-out: MIC): 0.007 µg/mL (≈ 0.00662 µM)
MBC (C. difficile I2; read-out: MBC): 0.007 µg/mL (≈ 0.00662 µM)
MIC (C. difficile I2; read-out: MIC): 0.007 µg/mL (≈ 0.00662 µM)
MBC (C. difficile I4; read-out: MBC): 0.015 µg/mL (≈ 0.0142 µM)
MIC (C. difficile I4; read-out: MIC): 0.015 µg/mL (≈ 0.0142 µM)
MBC (C. difficile NR-49277; read-out: MBC): 0.03 µg/mL (≈ 0.0284 µM)
MIC (C. difficile NR-49277; read-out: MIC): 0.03 µg/mL (≈ 0.0284 µM)
MBC (C. difficile NR-49281; read-out: MBC): 0.007 µg/mL (≈ 0.00662 µM)
MIC (C. difficile NR-49281; read-out: MIC): 0.007 µg/mL (≈ 0.00662 µM)
MBC (C. difficile NR-49284; read-out: MBC): 0.015 µg/mL (≈ 0.0142 µM)
MIC (C. difficile NR-49284; read-out: MIC): 0.015 µg/mL (≈ 0.0142 µM)
MBC (C. difficile NR-49286; read-out: MBC): 0.015 µg/mL (≈ 0.0142 µM)
MIC (C. difficile NR-49286; read-out: MIC): 0.007 µg/mL (≈ 0.00662 µM)
MBC (C. difficile NR-49290): 0.015 µg/mL (≈ 0.0142 µM)
MIC (C. difficile NR-49290; read-out: MIC): 0.015 µg/mL (≈ 0.0142 µM)
MBC (C. difficile P11 [2]): 0.03 µg/mL (≈ 0.0284 µM)
MIC (C. difficile P11 [2]; read-out: MIC): 0.03 µg/mL (≈ 0.0284 µM)
MBC (C. difficile P13): 0.015 µg/mL (≈ 0.0142 µM)
MIC (C. difficile P13; read-out: MIC): 0.015 µg/mL (≈ 0.0142 µM)
MBC (C. difficile P1; read-out: MBC): 0.007 µg/mL (≈ 0.00662 µM)
MIC (C. difficile P1; read-out: MIC): 0.003 µg/mL (≈ 0.00284 µM)
MBC (C. difficile P24): 0.03 µg/mL (≈ 0.0284 µM)
MIC (C. difficile P24; read-out: MIC): 0.015 µg/mL (≈ 0.0142 µM)
MBC (C. difficile P2): 0.03 µg/mL (≈ 0.0284 µM)
MIC (C. difficile P2; read-out: MIC): 0.03 µg/mL (≈ 0.0284 µM)
MBC (C. difficile P7; read-out: MBC): 0.06 µg/mL (≈ 0.0567 µM)
MIC (C. difficile P7; read-out: MIC): 0.06 µg/mL (≈ 0.0567 µM)
MBC (C. difficile P8; read-out: MBC): 0.015 µg/mL (≈ 0.0142 µM)
MIC (C. difficile P8; read-out: MIC): 0.015 µg/mL (≈ 0.0142 µM)
